Assay results published in patent US11254644B2, “Inhibitors of alpha-amino-beta-carboxymuconic acid semialdehyde decarboxylase” (TES Pharma S.r.l., priority 2014, dated 2022).

Experiments:
hACMSD (ACMSD1) = hACMSD (ACMSD1) (Homo sapiens (Human), UniProt Q8TDX5); assay: Determination of ACMSD1 inhibition, spectrophotometrical in vitro assay; type: biochemical; conditions: HAA concentration of 10 μM
Method: The activity of compounds as inhibitors of ACMSD1 is determined in a spectrophotometrical in vitro assay. The pre-assay mixture is incubated and a compound of Formula (I), Formula (Ia), Formula (Ib), Formula (II), or Formula (III), or a pharmaceutically acceptable salt thereof, and ACMSD1 solution is then added. The effect of ACMS concentration on the enzyme activity is investigated by varying 3-hydroxyanthranilic acid (3OH-HA) concentration in the pre-assay mixture. Kinetic parameters are calculated from the initial velocity data using a Lineweaver-Burk plot.
The activity of compounds 1-19 and 21-23 as inhibitors of ACMSD1 was determined by measuring the conversion of 3OH-Anthranilic Acid into product (i.e., ACMS) in a spectrophotometrical in vitro assay.
The pre-assay mixture consisting of 3-hydroxyanthranilic acid (3OH-HA), 3-hydroxyanthranilic acid, 3,4-diOxygenase (HAO), and a dialyzed crude extract of E. coli BL21 (DE3) cells expressing the recombinant enzyme, was incubated at 25° C. with monitoring of the increase in absorbance at 360 nm due to the formation of ACMS from 3OH-HA. After the reaction was completed within ˜2 mins, an aliquot of ACMSD1 solution (prepared and purified from Pichia Pastoris overexpressing the recombinant enzyme) was added, and the decrease in absorbance at 360 nm was followed at 15 second intervals. The effect of ACMS concentration on the enzyme activity was investigated by varying 3OH-HA concentration from 2 to 20 μM. Kinetic parameters were calculated from the initial velocity data by using the Lineweaver-Burk plot.
The rate of the decrease in absorbance caused by ACMSD1 was calculated by subtracting that of the control reaction mixture without ACMSD from that described above. One unit of ACMSD activity was indicated as the amount of enzyme that converts 1 mmol of ACMS per minute at 25° C. The absence or a reduction of ACMSD1 activity (e.g., by using ACMSD inhibitors) results in a slow ACMS-spontaneous degradation (i.e., cyclization to form quinolic acid).
The enzymatic activity was determined at a HAA concentration of 10 μM in the presence of the compounds in Table 1 below. The compounds were tested at the concentration of about 5 μM and 10 μM and the IC50 was calculated for compounds showing inhibitory activity higher than 50%.

ACMSD-1 = ACMSD-1 (Homo sapiens (Human), UniProt Q8TDX5); assay: ACMSD-1 modulation in HEK293T cells transiently expressing ACMSD; type: cell-based; conditions: about 50 nM to about 5 uM; stimulated 48 hrs to 72 hrs
Sequence of ACMSD-1 (Q8TDX5 whole entry): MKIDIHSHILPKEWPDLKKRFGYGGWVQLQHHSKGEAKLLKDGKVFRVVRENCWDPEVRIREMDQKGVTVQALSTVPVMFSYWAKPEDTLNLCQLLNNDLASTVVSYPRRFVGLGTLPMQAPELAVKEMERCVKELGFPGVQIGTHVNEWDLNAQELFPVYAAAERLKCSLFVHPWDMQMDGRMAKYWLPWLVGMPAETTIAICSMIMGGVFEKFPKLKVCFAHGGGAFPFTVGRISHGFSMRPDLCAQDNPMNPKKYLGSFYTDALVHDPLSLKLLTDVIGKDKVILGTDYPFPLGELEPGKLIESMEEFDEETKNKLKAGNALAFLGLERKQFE
Method: HEK293T cells are seeded and transfected to transiently express ACMSD. […] The amount of the whole protein content in cell lysates is detected by Bradford analysis and used to get the specificity activity of the enzyme normalized in all samples.
HEK293T cells (ATCC) were seeded in six-well plates and transfected using Fugene HD to express transiently ACMSD. […] The amount of the whole protein content in cell lysates was detected by Bradford analysis. This value was used to get the specificity activity of the enzyme normalized in all samples (mU/ml or ΔE/Δt/mg of total protein).

[1] = system: SIRT1-regulated genes in AML-12 cells; assay: RT-qPCR analysis of SIRT1-regulated genes in AML-12 cells; type: cell-based, mouse; conditions: 24 hrs
Method: (§1) Cells (AML-12, Hepa-1.6, HEK-293, primary human and murine hepatocytes) are treated with different concentrations of a compound of Formula (I), Formula (Ia), Formula (Ib), Formula (II), or Formula (III), or a pharmaceutically acceptable salt thereof and the gene expression of ACMSD, Pgc1a, Sod1, and Sod2 (MnSOD) is determined using RT-qPCR. Total RNA is extracted from cells and the extracted RNA is treated with DNase and used for reverse transcription (RT).
(§2) Gene expression of ACMSD and genes known to be regulated by SIRT1, (an enzyme that is strictly NAD^+ dependent) such as Pgc1a, Sod1, Sod2 (MnSOD), were analysed in AML-12 cells, Hepa-1.6 cells and primary murine hepatocytes treated with Compound 1 or 17.
(§3) Cells (AML-12, Hepa-1.6, HEK-293, primary human and murine hepatocytes) were treated with different concentrations of Compound 1 or Compound 17. Total RNA was extracted from cells using TRIzol (Invitrogen) according to the manufacturer's instructions. The RNA was treated with DNase, and 2 μg of RNA was used for reverse transcription (RT). 50× diluted cDNA was used for RT-quantitative PCR (RT-qPCR) reactions. The RT-qPCR reactions were performed using the Light-Cycler system (Roche Applied Science) and a qPCR Supermix (QIAGEN) with the indicated primers. The average of at least three technical repeats was used for each biological data point.

[2] = system: SIRT1-regulated genes in Hepa-1.6 cells; assay: RT-qPCR analysis of SIRT1-regulated genes in Hepa-1.6 cells; type: cell-based; conditions: Hepa-1.6 hepatic cell line, 24 hrs
Method: as §1, §2, §3

Sequence of hACMSD (ACMSD1) (Q8TDX5 whole entry): as above

N#Cc1c(-c2ccccc2)nc(SCc2cccc(C(=O)O)c2)[nH]c1=O [Compound 1]
IC50 (hACMSD (ACMSD1)): 50 nM
ACMSD-1 activity in transfected HEK293T cells (ACMSD-1): inhibited ACMSD-1 activity, in a dose dependent manner
Sod2 mRNA levels [1]: increased in a dose-dependent manner
Sod2 mRNA levels [2]: increased in a dose-dependent manner
